How the values were obtained:
[1] = 101.33 kPa, Liquid; for speed of sound: Sing-around technique in a fixed-path interferometer; for mass density: Vibrating tube method
[2] = xn = mol fraction of the nth substance listed; details: 101 kPa, Liquid; for speed of sound: Sing-around technique in a fixed-path interferometer; for mass density: Vibrating tube method

CCCCCCCCCO [nonan-1-ol]
[1]
Details | mass density [kg/m3] | speed of sound [m/s]
298.15 K | 824.271 | 1363.1
308.15 K | 817.362 | 1330.4

Cc1ccccc1C [1,2-dimethylbenzene]
[1]
Details | mass density [kg/m3] | speed of sound [m/s]
298.15 K | 875.363 | 1348.2
308.15 K | 866.507 | 1308.2

CCCCCCCCCO [nonan-1-ol] + Cc1cccc(C)c1
[2]
Details | mass density, 298.15 K [kg/m3] | mass density, 308.15 K [kg/m3] | speed of sound, 298.15 K [m/s] | speed of sound, 308.15 K [m/s]
x2 = 0 | 824.271 | 817.362 | 1363.1 | 1330.4
x2 = 0.066 | 826.04 | 819.011 | 1360.2 | 1326.5
x2 = 0.127 | 827.699 | 820.562 | 1357 | 1322.5
x2 = 0.1739 | 828.993 | 821.778 | 1354.2 | 1319.2
x2 = 0.2461 | 831.027 | 823.695 | 1349.4 | 1313.9
x2 = 0.2913 | 832.335 | 824.932 | 1346.4 | 1310.4
x2 = 0.3635 | 834.482 | 826.964 | 1341.4 | 1304.8
x2 = 0.4422 | 836.925 | 829.276 | 1335.9 | 1298.9
x2 = 0.4872 | 838.383 | 830.658 | 1332.9 | 1295.5
x2 = 0.5648 | 841.002 | 833.142 | 1328.2 | 1290.1
x2 = 0.6251 | 843.155 | 835.189 | 1324.7 | 1286.3
x2 = 0.6873 | 845.49 | 837.419 | 1321.9 | 1283
x2 = 0.7713 | 848.867 | 840.659 | 1319 | 1279.5
x2 = 0.8508 | 852.346 | 843.997 | 1317.8 | 1277.7
x2 = 0.9284 | 856.073 | 847.58 | 1318 | 1277.6

Cc1cccc(C)c1 [1,3-dimethylbenzene]
[1]
Details | mass density [kg/m3] | speed of sound [m/s]
298.15 K | 859.867 | 1320.1
308.15 K | 851.236 | 1279.1

Cc1ccc(C)cc1 [1,4-dimethylbenzene]
[1]
Details | mass density [kg/m3] | speed of sound [m/s]
298.15 K | 856.609 | 1309.5
308.15 K | 847.881 | 1268.6

Cc1cc(C)cc(C)c1 [1,3,5-trimethylbenzene]
[1]
Details | mass density [kg/m3] | speed of sound [m/s]
298.15 K | 860.862 | 1336
308.15 K | 852.659 | 1296.3

CCc1ccccc1 [ethylbenzene] + CCCCCCCCCO
[2], x1 = 1
Details | mass density [kg/m3] | speed of sound [m/s]
298.15 K | 862.433 | 1318.6
308.15 K | 853.607 | 1277.5

CCCCCCCCCO [nonan-1-ol] + Cc1ccc(C)cc1
[2]
Details | mass density, 298.15 K [kg/m3] | mass density, 308.15 K [kg/m3] | speed of sound, 298.15 K [m/s] | speed of sound, 308.15 K [m/s]
x2 = 0 | 824.271 | 817.362 | 1363.1 | 1330.4
x2 = 0.0611 | 825.819 | 818.805 | 1360.1 | 1326.3
x2 = 0.1108 | 827.09 | 819.99 | 1357.1 | 1322.6
x2 = 0.1652 | 828.491 | 821.297 | 1353.4 | 1318.2
x2 = 0.226 | 830.074 | 822.774 | 1349 | 1313.3
x2 = 0.2932 | 831.854 | 824.435 | 1343.9 | 1307.5
x2 = 0.3651 | 833.819 | 826.271 | 1338.4 | 1301.2
x2 = 0.4248 | 835.506 | 827.851 | 1333.5 | 1296.1
x2 = 0.5023 | 837.784 | 829.988 | 1327.5 | 1289.7
x2 = 0.558 | 839.499 | 831.601 | 1323.3 | 1285.2
x2 = 0.6359 | 842.032 | 833.99 | 1318.1 | 1279.6
x2 = 0.7123 | 844.678 | 836.494 | 1313.8 | 1274.8
x2 = 0.7744 | 846.969 | 838.668 | 1311 | 1271.7
x2 = 0.8514 | 850.015 | 841.569 | 1308.9 | 1269
x2 = 0.9286 | 853.306 | 844.715 | 1308 | 1268

CCCCCCCCCO [nonan-1-ol] + Cc1ccccc1C
[2]
Details | mass density, 298.15 K [kg/m3] | mass density, 308.15 K [kg/m3] | speed of sound, 298.15 K [m/s] | speed of sound, 308.15 K [m/s]
x2 = 0 | 824.271 | 817.362 | 1363.1 | 1330.4
x2 = 0.0653 | 826.644 | 819.637 | 1361.7 | 1328.2
x2 = 0.136 | 829.283 | 822.169 | 1359.7 | 1325.5
x2 = 0.1773 | 830.871 | 823.694 | 1358.3 | 1323.7
x2 = 0.2281 | 832.869 | 825.612 | 1356.5 | 1321.4
x2 = 0.2834 | 835.111 | 827.766 | 1354.3 | 1318.8
x2 = 0.3463 | 837.756 | 830.309 | 1351.8 | 1315.8
x2 = 0.4203 | 841.015 | 833.448 | 1348.8 | 1312.5
x2 = 0.4761 | 843.593 | 835.935 | 1346.7 | 1310
x2 = 0.5478 | 847.079 | 839.304 | 1344.3 | 1307.3
x2 = 0.6327 | 851.482 | 843.569 | 1342.2 | 1304.7
x2 = 0.7121 | 855.922 | 847.884 | 1341.1 | 1303
x2 = 0.7974 | 861.062 | 852.892 | 1341 | 1302.3
x2 = 0.8695 | 865.751 | 857.475 | 1342.1 | 1302.8
x2 = 0.9287 | 869.902 | 861.543 | 1344 | 1304.3

Cc1ccccc1C [1,2-dimethylbenzene] + CCCCCCCCCO
[2], x1 = 1
Details | mass density [kg/m3] | speed of sound [m/s]
298.15 K | 875.363 | 1348.2
308.15 K | 866.507 | 1308.2

Cc1cc(C)cc(C)c1 [1,3,5-trimethylbenzene] + CCCCCCCCCO
[2], x1 = 1
Details | mass density [kg/m3] | speed of sound [m/s]
298.15 K | 860.862 | 1336
308.15 K | 852.659 | 1296.3

CCCCCCCCCO [nonan-1-ol] + CCc1ccccc1
[2]
Details | mass density, 298.15 K [kg/m3] | mass density, 308.15 K [kg/m3] | speed of sound, 298.15 K [m/s] | speed of sound, 308.15 K [m/s]
x2 = 0 | 824.271 | 817.362 | 1363.1 | 1330.4
x2 = 0.0611 | 825.837 | 818.832 | 1359.7 | 1326.2
x2 = 0.1285 | 827.606 | 820.495 | 1355.8 | 1321.2
x2 = 0.1791 | 828.979 | 821.784 | 1352.3 | 1317.2
x2 = 0.2466 | 830.861 | 823.552 | 1347.6 | 1312
x2 = 0.3151 | 832.863 | 825.431 | 1342.6 | 1306.5
x2 = 0.3717 | 834.594 | 827.054 | 1338.4 | 1301.9
x2 = 0.4254 | 836.312 | 828.667 | 1334.5 | 1297.6
x2 = 0.5007 | 838.858 | 831.059 | 1329.2 | 1291.8
x2 = 0.5756 | 841.598 | 833.621 | 1324.6 | 1286.4
x2 = 0.6411 | 844.187 | 836.032 | 1321 | 1282.3
x2 = 0.7122 | 847.192 | 838.876 | 1318 | 1278.8
x2 = 0.7798 | 850.293 | 841.821 | 1316 | 1276.2
x2 = 0.8557 | 854.062 | 845.455 | 1315.2 | 1275
x2 = 0.9341 | 858.405 | 849.669 | 1316.3 | 1274.9

Cc1ccc(C)cc1 [1,4-dimethylbenzene] + CCCCCCCCCO
[2], x1 = 1
Details | mass density [kg/m3] | speed of sound [m/s]
298.15 K | 856.609 | 1309.5
308.15 K | 847.881 | 1268.6

CCCCCCCCCO [nonan-1-ol] + Cc1cc(C)cc(C)c1
[2]
Details | mass density, 298.15 K [kg/m3] | mass density, 308.15 K [kg/m3] | speed of sound, 298.15 K [m/s] | speed of sound, 308.15 K [m/s]
x2 = 0 | 824.271 | 817.362 | 1363.1 | 1330.4
x2 = 0.0696 | 826.211 | 819.181 | 1360.9 | 1327.3
x2 = 0.1267 | 827.826 | 820.708 | 1358.8 | 1324.6
x2 = 0.195 | 829.792 | 822.576 | 1356 | 1321
x2 = 0.2375 | 831.043 | 823.768 | 1354 | 1318.6
x2 = 0.3044 | 833.053 | 825.691 | 1350.8 | 1314.8
x2 = 0.362 | 834.839 | 827.405 | 1347.8 | 1311.4
x2 = 0.4358 | 837.211 | 829.683 | 1344.1 | 1307.4
x2 = 0.5112 | 839.754 | 832.121 | 1340.5 | 1303.3
x2 = 0.5777 | 842.112 | 834.381 | 1337.5 | 1300
x2 = 0.6422 | 844.512 | 836.681 | 1335.2 | 1297.5
x2 = 0.7091 | 847.143 | 839.209 | 1333.3 | 1295.2
x2 = 0.7788 | 850.052 | 841.998 | 1332.4 | 1293.7
x2 = 0.8571 | 853.546 | 845.418 | 1332.4 | 1293.1
x2 = 0.9234 | 856.701 | 848.558 | 1333.4 | 1293.8

CCc1ccccc1 [ethylbenzene]
[1]
Details | mass density [kg/m3] | speed of sound [m/s]
298.15 K | 862.433 | 1318.6
308.15 K | 853.607 | 1277.5

Cc1cccc(C)c1 [1,3-dimethylbenzene] + CCCCCCCCCO
[2], x1 = 1
Details | mass density [kg/m3] | speed of sound [m/s]
298.15 K | 859.867 | 1320.1
308.15 K | 851.236 | 1279.1

From the NIST ThermoML archive (doi:10.1016/j.jct.2012.10.023)
